According to the METLIN SMRT retention time set (Domingo-Almenara et al. 2019):

Experiment: gradient 5% acetonitrile 3 min, to 50% in 2 min, to 85% in 15 min, held 3 min, 100 µL/min
Settings: column: Zorbax Extend-C18 2.1 x 50 mm; eluents: water / acetonitrile, 0.1% formic acid
Outline: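 Over 3 months, pure standards in mixtures of ~100 molecules were run by HPLC coupled to a quadrupole time-of-flight mass spectrometer in positive and negative ionization mode. The column was a Zorbax Extend-C18 (2.1 × 50 mm, 1.8 μm) at 100 μL/min, eluted with water and acetonitrile each holding 0.1% formic acid, with 40 μL dead and 900 μL dwell volumes. Retention time was determined from adduct peaks chosen by software and checked manually.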

RP-LC retention time | Compound
999 s | O=C(c1cccc(Cl)c1)N1CCc2cc(-c3ccno3)ccc21
869 s | Cc1cc(C)cc(NS(=O)(=O)c2cc3n(c2)CCN(CC(C)C)C3=O)c1
772 s | CC1=C(c2ccc(C)cc2)S(=O)(=O)N=C1N1CCCN(C(=O)NC(C)C)CC1
687 s | CN(C)c1ccc(-c2nc3ncccn3c2Nc2ccccc2)cc1
760 s | COc1ccc(-c2noc(-c3cccnc3N3CCN(Cc4ccccc4)CC3)n2)cc1
741 s | Cc1ccc(-c2ncccc2CNS(=O)(=O)Cc2cccc(Cl)c2)cc1
862 s | COc1ccccc1-c1cnn2c(C)cc(C)nc12
721 s | O=C(COc1cccc(Cl)c1)N1CCN(c2nc(CN3CCOCC3)cs2)CC1
786 s | Cc1nn(-c2ccccc2)c(C)c1S(=O)(=O)N1CCC(C(=O)N2CCCC2)CC1
974 s | CCOC(=O)c1ccccc1NC(=O)CSc1ccc(-c2ccc3c(c2)OCO3)nn1
794 s | CC(C)(Oc1ccc(Cl)cc1)C(=O)Nc1ccc(-c2cn3cccnc3n2)cc1
715 s | COc1ccc(Cl)cc1-n1nnc(C(=O)NC2CC2)c1-c1ccncc1
941 s | CCOC(=O)CCNC(=O)N1CCc2c([nH]c3ccccc23)C1c1ccccc1F (stereo not drawn)
661 s | Cc1ccccc1NC(=O)Nc1c(-c2ccccc2)nc2ccccn12
986 s | Cc1nc(-c2cccc(-c3noc(CNC(=O)Cc4ccc(Cl)cc4)n3)c2)cs1
671 s | CN1CCn2cc(S(=O)(=O)Nc3ccc(F)c(F)c3)cc2C1=O
625 s | Cc1ccc(C(=O)N2CCc3sc(C(=O)N4CCN(C(C)C)CC4)cc3C2)cc1
622 s | Cn1c(C2CCN(C(=O)Nc3ccccc3F)CC2)cc(=O)n2nccc12
699 s | O=C(Cn1ncc2c3ccccc3n(Cc3ccccc3F)c2c1=O)N1CCN(c2ccccn2)CC1
719 s | O=C(Nc1ccc2nncn2c1)c1cccc(Cl)c1
622 s | COc1cc(C2C(C(=O)N3CCOCC3)=C(C)NC3=C2C(=O)CCC3)ccc1OC(C)=O (stereo not drawn)
1070 s | CCOc1ccc(-c2noc(Cn3ncn4nc(-c5ccc(F)cc5)cc4c3=O)n2)cc1OC

RP-LC retention time | Compound
901 s | Cc1cccc(NC(=O)c2nc(N3CCSCC3)c3cnn(C)c3n2)c1
717 s | O=C(CC(F)(F)F)N1CCCC(CCc2nnc(-c3cnccn3)o2)C1 (stereo not drawn)
684 s | Cc1ccc(NS(=O)(=O)c2cc3n(c2)CCCN(C)C3=O)c(F)c1
809 s | COC(=O)c1c(NCCc2c[nH]c3ccccc23)c2cc(Cl)ccc2[nH]c1=O
969 s | O=C(Cn1nc(C(=O)N2CCCCC2)c2ccccc21)Nc1nc2ccc(Cl)cc2s1
844 s | Cc1ccc(CN2CCN(C3CCN(C(=O)Nc4ccccc4)CC3)C2=O)cc1
1040 s | CCn1nc(C)n2cc(S(=O)(=O)N3CCC(Cc4ccccc4)CC3)cc2c1=O
647 s | CC12CC(NC(=O)N1c1cccc(C(=O)NCc3ccccn3)c1)c1cc(Cl)ccc1O2 (stereo not drawn)
1030 s | Cc1[nH]c(C(=O)N2CCC(CC(=O)NCc3ccccc3F)CC2)c(C)c1C(=O)OC(C)C
696 s | O=C(Nc1ccc2c(c1)C(=O)NC2=O)c1cccc([N+](=O)[O-])c1
560 s | O=C(Nc1ccccc1)N1CCc2nc[nH]c2C1
667 s | COc1ccc(NC(=O)N2CC(c3nc(C(C)C)nn3C)C2)c(OC)c1
574 s | Cc1cc(N2CCCCC2)n2nc(CN3CCN(C(C)C)CC3)nc2n1
725 s | Cc1cccc(NS(=O)(=O)c2cc(-c3[nH]ncc3C(=O)N3CCCC3)oc2C)c1C
760 s | Cc1ccc(CN2C[C@@H]3C(=O)N(Cc4ccc5c(c4)OCO5)C(=O)[C@@H]3C2)cc1
652 s | O=C(c1ccccc1-c1ocnc1C(=O)N1CCOCC1)N1CCCCC1
885 s | COc1cccc(-c2noc(C3CC(=O)N(c4ccc(F)cc4)C3)n2)c1OC (stereo not drawn)
849 s | Cc1ccc(Cl)cc1NC(=O)N1CCC(CC(=O)NCc2ccc(F)cc2)CC1
662 s | O=c1[nH]cc(Cl)cc1Cl
696 s | O=S(=O)(c1ccc(-c2nnc(C3CCCC3)o2)o1)N1CCN(C2CCCCC2)CC1
668 s | COc1cc([C@@H]2c3cc4c(cc3[C@H](O)[C@@H](CO)[C@@H]2C(=O)NCC(C)C)OCO4)cc(OC)c1OC
890 s | CCOC(=O)c1c(NCCC(C)C)c2cccc(Cl)c2[nH]c1=O

RP-LC retention time | Compound
612 s | Cc1cc(N2CCN(C(=O)c3ccccc3)CC2)nc(N2CCOCC2)n1
1010 s | CCOC(=O)c1noc2ncnc(Nc3ccc(C)cc3)c12
1060 s | CCOC(=O)CCCn1nc(C)c2nn(-c3ccccc3)c(-n3cccc3)c2c1=O
948 s | COc1ccc(-c2noc(C3CC(=O)N(c4ccc(C)c(F)c4)C3)n2)c(OC)c1 (stereo not drawn)
777 s | O=C(NCCC1CCN(C(=O)Nc2ccc(F)cc2F)CC1)C1CCCC1
683 s | CC(C)(C)NC(=O)N1CCC(CNC(=O)C(=O)Nc2cccc(N3CCCC3=O)c2)CC1
919 s | Cc1ccc(-n2nc(C)c(S(=O)(=O)N3CCC(C(=O)NCc4cccs4)CC3)c2C)cc1
771 s | CCCCNC(=O)CN1C(=O)CCn2nc(-c3cn(C)c4ccccc34)cc21
618 s | Cc1ccc(-c2nc3cnccn3c2NCCC(=O)NC(C)C)cc1
902 s | COc1ccc(C2(C(=O)Nc3ccc4c(c3)Sc3ncccc3C(=O)N4C)CC2)cc1
599 s | CCc1noc2nc(CCC(=O)NCCN3CCN(CC)CC3)nc(N3CCCCC3)c12
1040 s | CC(C)(C)c1cc(N2CCN(c3ccccn3)CC2)n2ncc(-c3ccccc3)c2n1
766 s | O=C(Cc1ccc(NS(=O)(=O)c2ccc3c(c2)CCCC3)cc1)NC1CC1
806 s | CC(=O)Nc1onc(C)c1-c1ccc(C)c(S(=O)(=O)Nc2ccc(F)cc2C)c1
864 s | COc1ccc(-c2nnc3sc(-c4cc(C)on4)nn23)cc1
1080 s | COc1ccc(Cl)cc1NC(=O)Cn1nc(N2CCSCC2)c2ccccc2c1=O
817 s | Cc1ccccc1NC(=O)N1CCc2nc(-c3ccccc3)ncc2C1
1090 s | O=c1ccc(-c2ccccc2)nn1Cc1nc(-c2cccc(Br)c2)no1
839 s | Cc1cc(F)ccc1NS(=O)(=O)c1cc2c(s1)CCN(C(=O)C1CC1)C2
442 s | NC(N)=NCc1cccc(I)c1
797 s | CCCC(=O)N1CCCN(C2=NS(=O)(=O)C(c3ccc(C)cc3)=C2C)CC1
864 s | CCSc1ccccc1C(=O)NCc1cc(-c2ccccc2)on1

RP-LC retention time | Compound
728 s | CCc1cccc(NS(=O)(=O)c2cc3n(c2)CCCN(C)C3=O)c1
590 s | Cc1nnc(N2CCCC(C(=O)NCCN3CCOCC3)C2)c2nn(-c3ccc(Cl)cc3)c(C)c12 (stereo not drawn)
889 s | COc1ccc(-c2nnc(N3CCC(C(=O)NCCN4CCOCC4)CC3)o2)cc1
746 s | O=C(c1ccc(-c2cccnc2)nc1)N1CCN(c2ccc(Cl)cc2)CC1
922 s | O=c1n(CCOc2ccccc2)nc2ccc(S(=O)(=O)N3CCCCC3)cn12
804 s | O=C(Cc1cccs1)N1CCN(c2ccc(=O)n(-c3ccc(Cl)cc3)n2)CC1
859 s | COc1cc(OC)c(NC(=O)Cn2ccc3ccc(-c4nnc(C)o4)cc32)cc1Cl
1130 s | CCCOc1ccc(CN(C(=O)Cc2coc3ccc(C)cc23)C2CCS(=O)(=O)C2)cc1 (stereo not drawn)
746 s | CCc1ccc(CNC(=O)c2cc3c(=O)n(C)ccc3n2C)cc1
925 s | O=C(NCc1cc(F)cc(F)c1)c1ccc(-c2cccs2)nc1
859 s | N#Cc1cccc(NC(=O)Cn2cccc(-c3nc(-c4ccc(F)cc4)no3)c2=O)c1
675 s | O=C(NC1CCCCCC1)c1ccc2ncnc(N3CCCC3)c2c1
782 s | Cc1cc(Cl)ccc1S(=O)(=O)Nc1ccc(Cn2cncn2)cc1
848 s | O=C(Cc1cccs1)N1CCCn2cc(-c3ccccc3F)nc21
594 s | COc1ccc(-c2c(C(=O)NCCCN3CCOCC3)nc3ccccn23)cc1
914 s | CCCCc1ccc(NC(=O)N2CC(c3nc(C)no3)C3(CCOCC3)C2)cc1 (stereo not drawn)
1150 s | CCOc1ccc(-c2nc(Cn3nnc(C(=O)Nc4ccccc4OC)c3C)c(C)o2)cc1
780 s | CCC1=C(c2ccc(C)cc2)S(=O)(=O)N=C1N1CCC(C(=O)N2CCOCC2)CC1
1170 s | CCc1cc(=O)n(CC(=O)N2CCc3ccccc32)c(-c2ccccc2)n1
516 s | COc1ccc(NC(=O)Nc2cnc3c(c2)CCC3)cc1

Compound | RP-LC retention time
O=C(C1CCCC1)N1[C@H]2CC[C@@H]1c1cnc(-c3ccc(F)cc3)nc1C2 | 984 s
CC(=O)c1cc2c(cc1NC(=O)c1cn(Cc3ccc(C)cc3)nn1)OCO2 | 1030 s
